Data set [1] deals with Gram positive Streptococci. The data set is described as follows: Anti-bacterial activity, agar well zone of inhibition. The class given is cell-based. Particulars: 50 μL of 5 mg/mL suspension in 0.4 cm wells, 37° C. for 48 hours. The method, then:
(§1) Nutrient broth was prepared by dissolving 0.2 g in 25 mL distilled water in erlenmeyer flask. The flask was then sterilized in an autoclave at the 121° C. for 15 minutes after applying cotton plug to cover its mouth. This growth media was utilized to prepare inoculums of all strains of bacteria. After adding a loop full of bacterial strain in it, the flask was placed in shaking incubator at 37° C. for the night. The plates were inoculated after the incubated broth was diluted up to 10^−2.
(§2) 0.8 g nutrient broth and 2 g of agar were added to 100 mL autoclaved water in an erlenmeyer flask. Apply cotton plug to the flask and then sterilize it in an autoclave at the 121° C. for 15 minutes. Each petri plate was poured with 15-20 mL of agar which was then solidified and inoculated with the bacterial strain. 50 μL of sample suspension was poured in wells that have the diameter of 0.4 cm. All sample suspensions were made by adding 5 mg of product in 1 mL distilled water. Zones of inhibition were observed after keeping these plates at 37° C. for 48 hours.

Data set [2] concerns Gram positive cocci (Separate). The description is as above. The format is cell-based. Particulars: 48 h. Here is the method:
as §1, §2

Another data set deals with Gram positive sarccina. Described as above. The format is cell-based. Particulars: 50 μL of 5 mg/mL suspension in 0.4 cm wells, 37° C. for 48 hours. The method, then: as §1, §2
Data set [3] in a line: In-vitro drug release / drug entrapment efficiency in PBS by UV spectroscopy at 278 nm. The class given is physicochemical. Here is the method: 30 mg of CHL-loaded nanoparticles were dispersed and homogenized in 100 mL of PBS, pH 7.4 (purchased from Sigma Aldrich) which releases all entrapped CHL from the nanocomposite. Before homogenization, nanocomposite formulation was cleared from free drug molecules by washing with distilled water. Ultraviolet (UV) spectroscopy at a wavelength of 278 nm was employed for completely developing entire content of entrapped chloramphenicol in triplicates. A solution of drug-free nanocomposite (30 mg) in distilled water was employed as a reference, thus reducing the chances of interference by excipients and polymer used to prepare the nanocomposite. Following equation was utilized to evaluate drug entrapment efficiency (DEE) value, as was reported in a paper by Harilall S, Choonara Y E. et al. %DEE=D1/D2*100 Where D1 is the actual quantity of drug (mg/100 mL) and D2 is the theoretical quantity of drug (mg/100 mL) entrapped within the formulation. Precision of the results was made certain by calculating the average DEE of five samples.
An in-vitro drug release study was conducted on the basis of a paper reported by Harilall S, Choonara Y E. et al. for the zidovudine release study. CHL-loaded nanocomposite, nanocomposite and commercially available CHL were submerged in 100 mL PBS discretely and then sited these set of preparations in an orbital shaking incubator (20 rpms, 37° C.). Portions of these preparations were taken at altered time interims for 48 hours and substituted by equal quantities of buffer solution and were evaluated by UV spectroscopy for CHL absorption at a wavelength of 278 nm.

Turning to `O=C(N[C@H](CO)[C@H](O)c1ccc([N+](=O)[O-])cc1)C(Cl)Cl` [CHL, chloramphenicol], the zone of inhibition at 5000 µg/mL in data set [1] was 6 mm; in data set [2] it was 4 mm; in the data set on Gram positive sarccina it was 2 mm. Further, the “Time in which almost the whole drug is released” value in data set [3] (PBS) was 3 to 4 h. The “DEE (FIG. 7, in-vitro drug release)” value in data set [3] (first hour of exposure to PBS, 37° C.) is given as 91%; in data set [3] (fourth hour in PBS (third of the next three hours)) it was 97%; in data set [3] (second hour in PBS (first of the next three hours)), 94%; in data set [3] (third hour in PBS (second of the next three hours)), 97%.

In general, zone of inhibition refers to the extent of the growth-free halo in a diffusion test.

The values are drawn from patent US9393313B2, “Drug entrapment efficiency and sustained drug release of chloramphenicol loaded polymeric-iron nanoparticles” (priority 2014, dated 2016).
